Results as given in publication PMC2864793 (Molecular cell, 2010).
Numbering of substitutions follows the chain as printed. In names and notes the source's numbering stands.

Assays:
IRE1 [1] = biological target: T1, IRE1 (Saccharomyces cerevisiae, UniProt P32361, K985A); experiment: RNase activation assay and DSS crosslinking at […] ADP; type: biochemical
T1 sequence (P32361 658-1115 K985A): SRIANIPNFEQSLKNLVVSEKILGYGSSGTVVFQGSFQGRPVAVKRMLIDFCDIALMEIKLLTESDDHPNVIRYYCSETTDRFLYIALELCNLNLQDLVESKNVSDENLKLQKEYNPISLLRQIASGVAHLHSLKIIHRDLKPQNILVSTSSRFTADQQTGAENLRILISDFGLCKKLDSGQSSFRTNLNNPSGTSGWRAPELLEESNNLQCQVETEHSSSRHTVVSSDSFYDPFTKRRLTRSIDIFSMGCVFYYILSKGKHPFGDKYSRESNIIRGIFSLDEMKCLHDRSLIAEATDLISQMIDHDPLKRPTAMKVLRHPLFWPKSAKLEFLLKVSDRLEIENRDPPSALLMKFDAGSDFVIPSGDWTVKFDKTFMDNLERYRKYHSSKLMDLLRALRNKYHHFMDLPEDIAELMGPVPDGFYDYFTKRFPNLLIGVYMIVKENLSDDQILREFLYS

IRE1 [2] = biological target: IRE1 (Saccharomyces cerevisiae, UniProt P32361); experiment: co-crystal structure with quercetin; type: biochemical
IRE1 (Saccharomyces cerevisiae, UniProt P32361), sequence (P32361 658-1115): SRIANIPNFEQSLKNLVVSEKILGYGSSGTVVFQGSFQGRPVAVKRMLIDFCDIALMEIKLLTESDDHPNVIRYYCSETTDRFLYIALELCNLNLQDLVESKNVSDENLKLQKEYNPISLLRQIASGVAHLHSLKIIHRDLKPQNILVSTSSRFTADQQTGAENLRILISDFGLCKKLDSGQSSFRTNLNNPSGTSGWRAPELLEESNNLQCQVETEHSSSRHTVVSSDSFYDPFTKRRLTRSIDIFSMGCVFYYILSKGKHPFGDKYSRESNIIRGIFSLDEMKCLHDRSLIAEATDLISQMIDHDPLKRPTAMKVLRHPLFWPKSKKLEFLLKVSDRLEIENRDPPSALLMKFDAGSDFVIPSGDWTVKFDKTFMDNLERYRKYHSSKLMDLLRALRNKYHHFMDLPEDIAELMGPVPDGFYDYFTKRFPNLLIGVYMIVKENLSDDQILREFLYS

IRE1 [3] = biological target: T2, IRE1 (Saccharomyces cerevisiae, UniProt P32361, D797A); experiment: fluorescent RNase activation assay at […]; type: biochemical
T2 sequence (P32361 658-1115 D797A): T1 sequence (P32361 658-1115 K985A) with D140A, A328K

cross-linking = biological target: the molecule itself; experiment: cross-linking
AUC = biological target: the molecule itself; experiment: AUC

Molecule: Nc1ncnc2c1ncn2[C@@H]1O[C@H](COP(=O)(O)OP(=O)(O)O)[C@@H](O)[C@H]1O [ADP]
- RNase activation assay and DSS crosslinking at 2 mM ADP (IRE1 [1]): abolished by the Q-site mutant IRE1^K985A, although ADP-dependent crosslinking was still observed
- EC50 (IRE1 [2]): ~40 µM

Molecule: O=c1c(O)c(-c2ccc(O)c(O)c2)oc2cc(O)cc(O)c12 [quercetin]
- fluorescent RNase activation assay at 25 μM (IRE1 [3]): addition of quercetin substantially activates its RNase (Figure 7C). Such activation was Q-site dependent

B1: IRE1^K985A (Q-site mutant of yeast IRE1 658–1115) (domain or fragment, UniProt P32361 658-1115, looked up)
chain: T1 sequence (P32361 658-1115 K985A)
modifications: purified as a phosphorylated protein (sites not given)
- binding result (cross-linking): binds

B2: cytosolic portion of yeast IRE1 (residues 658–1115; inclusive of both the kinase and KEN domains) (domain or fragment, UniProt P32361 658-1115, looked up)
chain: T1 sequence (P32361 658-1115 K985A) with A328K
modifications: phosphorylated when purified from bacteria (sites not given for this construct)
- stoichiometry N (AUC): 2
